The source of these data is US12398097B2, “WDR5-MYC inhibitors” (Vanderbilt University, priority 2019, dated 2025).

In this test the target is WDR5 (Homo sapiens, UniProt P61964). As to the kind of experiment: Competition-based fluorescence polarization anisotropy assay. The note with it: binding to WDR5; displacement of FITC-labeled small molecule probe (analogous to Example J2 or HCH-25) or peptide probe FITC-AHx-SEEEIDVVSV; pH 6.0; Ki converted from IC50. The method in brief:
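Competition fluorescence polarization anisotropy binding to WDR5 using a FITC-labeled peptide probe or a fluorescently labeled small-molecule probe. Buffer: 200 mM phosphate, 300 mM NaCl, 0.5 mM TCEP, 0.1% Chaps, pH 6.0. Displacement data were converted to Ki.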
`NC(=O)c1cc(C2CC2)cc(NS(=O)(=O)c2cc(Br)ccc2O)c1O` [Example J80, 3-((5-Bromo-2-hydroxyphenyl)sulfonamido)-5-cyclopropyl-2-hydroxybenzamide] gave an inhibition constant (Ki) of 1640 nM. Next, `O=C(O)c1cc(Cl)cc(NS(=O)(=O)c2cc(Br)cc([N+](=O)[O-])c2O)c1O` [Example J6, 3-((5-Bromo-2-hydroxy-3-nitrophenyl)sulfonamido)-5-chloro-2-hydroxybenzoic acid]: 110 nM; `COc1ccc(Br)cc1S(=O)(=O)Nc1cc(Cl)cc(C(=O)N2CCC[C@@H]2CO)c1O` [Example J55, (R)-5-Bromo-N-(5-chloro-2-hydroxy-3-(2-(hydroxymethyl)pyrrolidine-1-carbonyl)phenyl)-2-methoxybenzenesulfonamide]: 8170 nM; `CNC(=O)c1cc(C2(C#N)CCC2)cc(NS(=O)(=O)c2cc(Br)c(F)cc2OC)c1O` [SN-5, 3-((5-bromo-4-fluoro-2-methoxyphenyl)sulfonamido)-5-(1-cyanocyclobutyl)-2-hydroxy-N-methylbenzamide]: 2620 nM. Next, `CN1CCN(CCNS(=O)(=O)c2cc(Cl)cc(NS(=O)(=O)c3cc(Br)cc(Cl)c3O)c2O)CC1` [Example S33, 5-Bromo-3-chloro-N-(5-chloro-2-hydroxy-3-(N-(2-(4-methylpiperazin-1-yl)ethyl)sulfamoyl)phenyl)-2-hydroxybenzenesulfonamide]: 730 nM. In the case of `CNC(=O)c1c(O)c(NS(=O)(=O)c2cc(Br)ccc2O)cc(C2CC2)c1F` [Example J124, 3-((5-Bromo-2-hydroxyphenyl)sulfonamido)-5-cyclopropyl-6-fluoro-2-hydroxy-N-methylbenzamide], the Ki came to 280 nM. Next, `O=C(O)c1cc(S(F)(F)(F)(F)F)cc(NS(=O)(=O)c2cc(Br)cc3cccnc23)c1O` [Example S68]: 20 nM. Regarding `COC1CCN(C(=O)c2cc(OC(F)(F)F)cc(NS(=O)(=O)c3cc(Br)ccc3O)c2O)C1` (centres unmarked) [Example J174, 5-Bromo-2-hydroxy-N-(2-hydroxy-3-(3-methoxypyrrolidine-1-carbonyl)-5-(trifluoromethoxy)phenyl)benzenesulfonamide], the affinity, expressed as Ki, was 4690 nM.

As for `COc1ccc(Br)cc1S(=O)(=O)Nc1cc(Cl)cc(C(=O)N2CCC[C@H]2CO)c1O` [Example J54, (S)-5-Bromo-N-(5-chloro-2-hydroxy-3-(2-(hydroxymethyl)pyrrolidine-1-carbonyl)phenyl)-2-methoxybenzenesulfonamide], the Ki amounted to 6840 nM. With `O=C(NC1CC(F)(F)C1)c1cc(OC(F)(F)F)cc(NS(=O)(=O)c2cc(Br)ccc2O)c1O` [HCH-55, 3-((5-Bromo-2-hydroxyphenyl)sulfonamido)-N-(3,3-difluorocyclobutyl)-2-hydroxy-5-(trifluoromethoxy)benzamide] the figure was 350 nM; with `COC[C@@H]1CCCN1C(=O)c1cc(Cl)cc(NS(=O)(=O)c2cc(Br)ccc2O)c1O` [Example J29, (S)-5-Bromo-N-(5-chloro-2-hydroxy-3-(2-(methoxymethyl)pyrrolidine-1-carbonyl)phenyl)-2-hydroxybenzenesulfonamide], 4000 nM; with `O=C(O)c1cc(OC(F)(F)F)cc(NS(=O)(=O)c2cc(Br)cc(Cl)c2O)c1O` [HCH-24, 3-((5-Bromo-3-chloro-2-hydroxyphenyl)sulfonamido)-2-hydroxy-5-(trifluoromethoxy)benzoic acid], 40 nM. Next, `N#CC1(c2cc(NS(=O)(=O)c3cc(Br)ccc3O)c(O)c(C(=O)NCc3ccc(=O)[nH]c3)c2)CCC1` [Example J230, 3-((5-Bromo-2-hydroxyphenyl)sulfonamido)-5-(1-cyanocyclobutyl)-2-hydroxy-N-((6-oxo-1,6-dihydropyridin-3-yl)methyl)benzamide]: 630 nM.

As for `O=C(c1cc(OC(F)(F)F)cc(NS(=O)(=O)c2cc(Br)ccc2O)c1O)N1CCC[C@@H]1CO` [Example J170, (R)-5-Bromo-2-hydroxy-N-(2-hydroxy-3-(2-(hydroxymethyl)pyrrolidine-1-carbonyl)-5-(trifluoromethoxy)phenyl)benzenesulfonamide], the affinity, expressed as Ki, was 2840 nM. With `CS(=O)(=O)c1cc(NS(=O)(=O)c2cc(Br)cc(Cl)c2O)cc(OC(F)(F)F)c1` [Example S12, 5-Bromo-3-chloro-2-hydroxy-N-(3-(methylsulfonyl)-5-(trifluoromethoxy)phenyl)benzenesulfonamide] the figure was 70 nM; with `CNC(=O)c1cc(OC(F)(F)F)cc(NS(=O)(=O)c2cc(Br)ccc2O)c1O` [Example J162, 3-((5-Bromo-2-hydroxyphenyl)sulfonamido)-2-hydroxy-N-methyl-5-(trifluoromethoxy)benzamide], 410 nM. Next, `CS(=O)(=O)c1cc(NS(=O)(=O)c2cc(Br)ccc2O)cc(C2CC2)c1` [Example S9, 5-Bromo-N-(3-cyclopropyl-5-(methylsulfonyl)phenyl)-2-hydroxybenzenesulfonamide]: 1030 nM.

Consider `CCN(CC)CCS(=O)(=O)c1cc(Cl)cc(NS(=O)(=O)c2cc(Br)cc(Cl)c2O)c1` [Example S35, 5-Bromo-3-chloro-N-(3-chloro-5-((2-(diethylamino)ethyl)sulfonyl)phenyl)-2-hydroxybenzenesulfonamide], for which affinity was put at a Ki of 340 nM. Consider `NC(=O)c1cc(F)cc(NS(=O)(=O)c2cc(Br)ccc2O)c1O` [Example J108, 3-((5-Bromo-2-hydroxyphenyl)sulfonamido)-5-fluoro-2-hydroxybenzamide], for which affinity was put at a Ki of 2240 nM.

`N#CC1(c2cc(NS(=O)(=O)c3cc(Br)cc(Cl)c3O)cc(C(=O)O)c2)CCC1` [Example S71, 3-((5-Bromo-3-chloro-2-hydroxyphenyl)sulfonamido)-5-(1-cyanocyclobutyl)benzoic acid] registered a Ki of 10 nM.

As for `CCc1cc(Br)cc(S(=O)(=O)Nc2cc(OC(F)(F)F)cc(C(=O)NCC(O)CC)c2O)c1O` (centres unmarked) [HCH-40, 3-((5-Bromo-3-ethyl-2-hydroxyphenyl)sulfonamido)-2-hydroxy-N-(2-hydroxybutyl)-5-(trifluoromethoxy)benzamide], the affinity corresponds to a Ki of 350 nM.

As for `N#CC1(c2cc(NS(=O)(=O)c3cc(Br)ccc3O)c(O)c(C(=O)NCC3CCCCO3)c2)CCC1` (centres unmarked) [Example J229, 3-((5-Bromo-2-hydroxyphenyl)sulfonamido)-5-(1-cyanocyclobutyl)-2-hydroxy-N-((tetrahydro-2H-pyran-2-yl)methyl)benzamide], the Ki was found to be 850 nM. The compound `COC[C@H]1CCCN1C(=O)c1cc(Cl)cc(NS(=O)(=O)c2cc(Br)ccc2OC)c1O` [Example J57, (R)-5-Bromo-N-(5-chloro-2-hydroxy-3-(2-(methoxymethyl)pyrrolidine-1-carbonyl)phenyl)-2-methoxybenzenesulfonamide] gave a Ki of 8440 nM. Compound `O=C(Nc1nc[nH]n1)c1cc(Cl)cc(NS(=O)(=O)c2cc(Br)ccc2O)c1` [Example J67, 3-((5-Bromo-2-hydroxyphenyl)sulfonamido)-5-chloro-N-(1H-1,2,4-triazol-3-yl)benzamide] gave a Ki of 360 nM. With `NC(=O)c1cc(OC(F)(F)F)cc(NS(=O)(=O)c2cc(Br)cc(CCCO)c2O)c1O` [HCH-4, 3-((5-Bromo-2-hydroxy-3-(3-hydroxypropyl)phenyl)sulfonamido)-2-hydroxy-5-(trifluoromethoxy)benzamide] the figure was 580 nM; with `COc1ccc(Br)cc1S(=O)(=O)Nc1cc(Cl)cc(NC(C)=O)c1O` [Example J200, N-(3-((5-Bromo-2-methoxyphenyl)sulfonamido)-5-chloro-2-hydroxyphenyl)acetamide], 68800 nM; with `NC(=O)c1cc(OC(F)(F)F)cc(NS(=O)(=O)c2cc(Br)cc(Cl)c2O)c1O` [HCH-62, 3-((5-Bromo-3-chloro-2-hydroxyphenyl)sulfonamido)-2-hydroxy-5-(trifluoromethoxy)benzamide], 330 nM. Next, `CCS(=O)(=O)c1cc(Cl)cc(NS(=O)(=O)c2cc(Br)cc(Cl)c2O)c1O` [Example S21, 5-Bromo-3-Chloro-N-(5-chloro-3-(ethylsulfonyl)-2-hydroxyphenyl)-2-hydroxybenzenesulfonamide]: 240 nM. Next, `CCC(C)(O)CNC(=O)c1cc(OC(F)(F)F)cc(NS(=O)(=O)c2cc(Br)ccc2O)c1O` (centres unmarked) [HCH-45, 3-((5-Bromo-2-hydroxyphenyl)sulfonamido)-2-hydroxy-N-(2-hydroxy-2-methylbutyl)-5-(trifluoromethoxy)benzamide]: 440 nM. As to `CN(C)CCNC(=O)c1cc(C2(C#N)CCC2)cc(NS(=O)(=O)c2cc(Br)ccc2O)c1O` [Example J226, 3-((5-Bromo-2-hydroxyphenyl)sulfonamido)-5-(1-cyanocyclobutyl)-N-(2-(dimethylamino)ethyl)-2-hydroxybenzamide], affinity was put at a Ki of 1090 nM. With `N#CC1(c2cc(NS(=O)(=O)c3cc(Br)ccc3O)c(O)c(C(N)=O)c2)CCC1` [Example J218, 3-((5-Bromo-2-hydroxyphenyl)sulfonamido)-5-(1-cyanocyclobutyl)-2-hydroxybenzamide] the figure was 1500 nM; with `N#CC1(c2cc(NS(=O)(=O)c3cc(Br)cc(Cl)c3O)c(O)c(C(=O)O)c2)CCC1` [Example J206, 3-((S-Bromo-3-chloro-2-hydroxyphenyl)sulfonamido)-5-(1-cyanocyclobutyl)-2-hydroxybenzoic acid], 20 nM. With `CNC(=O)c1cc(Cl)cc(NS(=O)(=O)c2cc(Br)ccc2O)c1` [Example S70, 3-((5-Bromo-2-hydroxyphenyl)sulfonamido)-5-chloro-N-methylbenzamide] the figure was 2930 nM; with `COc1c(Cl)cc(Br)cc1S(=O)(=O)Nc1cc(C2(C#N)CCC2)cc(C(=O)O)c1O` [SN-4, 3-((5-bromo-3-chloro-2-methoxyphenyl)sulfonamido)-5-(1-cyanocyclobutyl)-2-hydroxybenzoic acid], 870 nM.

For the compound `COc1cc(OC)c(S(=O)(=O)Nc2cc(Cl)cc([N+](=O)[O-])c2O)cc1Br` [NE8, 5-Bromo-N-(5-chloro-2-hydroxy-3-nitrophenyl)-2,4-dimethoxybenzenesulfonamide], the affinity, expressed as Ki, was 7240 nM.
